The source made the active and inactive calls.
Experiments:
HEK293 = assay: inhibitors of LMP1-driven NF-kB reporter, dose response, cell-based, HEK293, luciferase, cherry-pick (AID 588343); type: functional; conditions: Homo sapiens
Interleukin-8 [1] = biological target: T1, Interleukin-8 (Homo sapiens, UniProt P10145); assay: Dose Response confirmation of uHTS small molecule hits for cystic fibrosis induced NFkb Inhibitors in a TNFa-induced IL8 counterscreen.; type: functional; conditions: read-out: IC50_Mean
T1 sequence (P10145 whole entry): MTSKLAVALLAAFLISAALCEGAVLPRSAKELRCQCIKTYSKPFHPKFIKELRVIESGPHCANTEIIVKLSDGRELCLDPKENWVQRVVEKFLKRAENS

Interleukin-8 [2] = biological target: T1, Interleukin-8; assay: Dose Response confirmation of uHTS small molecule hits for cystic fibrosis induced NFkb Inhibitors in a PAF-induced IL8 counterscreen.; type: functional; conditions: read-out: IC50_Mean
[3] = inhibitors of PGC1a acetylation in cells, dose response, cell-based, cherry-picked samples (AID 720514); type: functional;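 also: potency may reflect raised or lowered acetylation signal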
[4] = miR-122 activators in hepatoma reporter cells, dose response, cell-based, Huh7 psiCHECK-miR122, Renilla luciferase, cherry-picked (AID 651956); type: functional;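 also: huh7 hepatoma cells stably carrying a psiCHECK-2 miR-122 sensor plasmid; renilla luciferase signal reporting endogenous miR-122 activity after 48 h compound exposure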
[5] = microbe, parasite or virus in culture; type: functional; conditions: Mycobacterium tuberculosis
[6] = biological target: T2, Scavenger receptor class B member 1 (Mus musculus, UniProt Q61009); assay: inhibitors of SR-BI dependent HDL uptake, dose response, ldlA[mSR-BI] CHO cells, fluorescence plate reader, dry powder, set 9 (AID 623880); type: functional, cell-based
T2 sequence (Q61009 whole entry): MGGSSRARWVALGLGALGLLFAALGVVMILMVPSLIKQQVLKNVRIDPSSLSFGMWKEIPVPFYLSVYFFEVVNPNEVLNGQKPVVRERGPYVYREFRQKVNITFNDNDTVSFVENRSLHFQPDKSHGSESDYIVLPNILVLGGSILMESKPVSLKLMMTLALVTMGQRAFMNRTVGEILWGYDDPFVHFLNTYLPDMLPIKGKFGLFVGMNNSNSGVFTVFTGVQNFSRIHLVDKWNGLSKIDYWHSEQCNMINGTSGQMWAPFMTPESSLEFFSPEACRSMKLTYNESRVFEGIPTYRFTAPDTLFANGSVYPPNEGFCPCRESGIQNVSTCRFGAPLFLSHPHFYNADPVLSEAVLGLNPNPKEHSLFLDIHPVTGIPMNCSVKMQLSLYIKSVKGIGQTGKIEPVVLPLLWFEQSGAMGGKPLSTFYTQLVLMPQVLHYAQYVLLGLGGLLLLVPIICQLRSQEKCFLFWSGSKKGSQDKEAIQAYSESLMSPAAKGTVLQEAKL

[7] = biological target: T2, Scavenger receptor class B member 1; assay: inhibitors of SR-BI-mediated HDL uptake, dose response, cell-based, ldlA[mSR-BI] CHO, DiI fluorescence, dry powder, set 10 (AID 624029); type: functional
[8] = biological target: Matrix metalloproteinase-14 (Homo sapiens, UniProt P50281); assay: Dose Response confirmation of uHTS hits for a small molecule inhibitors of MT1-MMP activation in a fluorescence assay set 1.; type: functional
[9] = AlphaScreen signal interference compounds, dose response, artefact control for ARNT-TACC3 interaction inhibitor project, biochemical, luminescence, cherry-pick (AID 651705); type: functional;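 also: AlphaScreen bead proximity signal that flags compounds interfering with the detection technology; potency reflects signal decrease which marks the compound as an assay artifact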
[10] = biological target: T3, Apoptotic protease-activating factor 1 (Homo sapiens, UniProt O14727); assay: SAR analysis of small molecule Activators of Apaf-1 in a Fluorescent assay.; type: functional; conditions: read-out: EC50_Mean;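 also: caspase-3 cleavage of fluorogenic Rh110 DEVD substrate downstream of apoptosome activation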
T3 sequence (O14727 whole entry): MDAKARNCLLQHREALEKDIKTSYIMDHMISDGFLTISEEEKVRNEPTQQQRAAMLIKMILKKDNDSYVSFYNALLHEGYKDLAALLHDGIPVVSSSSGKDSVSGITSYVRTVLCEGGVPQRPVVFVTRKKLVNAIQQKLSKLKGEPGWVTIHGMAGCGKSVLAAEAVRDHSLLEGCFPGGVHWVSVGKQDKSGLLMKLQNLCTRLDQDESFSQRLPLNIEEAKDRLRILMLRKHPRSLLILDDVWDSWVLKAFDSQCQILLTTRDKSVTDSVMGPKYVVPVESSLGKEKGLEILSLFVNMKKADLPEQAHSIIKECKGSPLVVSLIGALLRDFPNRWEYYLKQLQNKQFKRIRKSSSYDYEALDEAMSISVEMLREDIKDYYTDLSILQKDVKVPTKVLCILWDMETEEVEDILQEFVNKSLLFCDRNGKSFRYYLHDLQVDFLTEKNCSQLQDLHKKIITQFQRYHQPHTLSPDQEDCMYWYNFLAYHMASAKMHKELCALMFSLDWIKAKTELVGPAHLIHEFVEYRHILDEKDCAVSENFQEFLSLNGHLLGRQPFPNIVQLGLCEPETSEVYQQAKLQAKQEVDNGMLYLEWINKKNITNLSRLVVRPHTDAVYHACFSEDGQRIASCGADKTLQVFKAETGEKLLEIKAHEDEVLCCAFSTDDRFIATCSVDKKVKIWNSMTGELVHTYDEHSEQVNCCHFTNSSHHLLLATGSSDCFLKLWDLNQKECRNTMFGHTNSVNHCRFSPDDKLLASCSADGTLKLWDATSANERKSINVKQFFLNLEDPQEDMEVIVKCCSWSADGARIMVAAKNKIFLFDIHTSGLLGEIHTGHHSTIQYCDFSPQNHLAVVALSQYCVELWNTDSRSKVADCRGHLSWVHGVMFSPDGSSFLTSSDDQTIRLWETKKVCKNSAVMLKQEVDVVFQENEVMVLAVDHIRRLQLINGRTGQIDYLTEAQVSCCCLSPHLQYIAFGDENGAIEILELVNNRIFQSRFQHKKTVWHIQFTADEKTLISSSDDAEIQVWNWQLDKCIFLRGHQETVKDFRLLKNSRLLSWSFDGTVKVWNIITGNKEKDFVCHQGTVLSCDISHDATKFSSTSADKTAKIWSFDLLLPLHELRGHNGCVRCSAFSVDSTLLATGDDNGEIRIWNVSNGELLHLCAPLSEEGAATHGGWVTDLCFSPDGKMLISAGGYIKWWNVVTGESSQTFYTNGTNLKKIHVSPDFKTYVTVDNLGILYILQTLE

[11] = DNA binding of candidate compounds, dose response, artefact control for RAD54 inhibitor project, biochemical, fluorescence polarization, cherry-pick (AID 651673); type: functional
[12] = biological target: DNA repair and recombination protein RAD54-like (Homo sapiens, UniProt Q92698); assay: inhibitors of human RAD54 branch migration, confirmation, biochemical, fluorescence, cherry-picked samples, dose series (AID 651657); type: functional
[13] = biological target: T4, DNA repair protein RAD52 homolog (Homo sapiens, UniProt P43351); type: functional, biochemical
T4 sequence (P43351 whole entry): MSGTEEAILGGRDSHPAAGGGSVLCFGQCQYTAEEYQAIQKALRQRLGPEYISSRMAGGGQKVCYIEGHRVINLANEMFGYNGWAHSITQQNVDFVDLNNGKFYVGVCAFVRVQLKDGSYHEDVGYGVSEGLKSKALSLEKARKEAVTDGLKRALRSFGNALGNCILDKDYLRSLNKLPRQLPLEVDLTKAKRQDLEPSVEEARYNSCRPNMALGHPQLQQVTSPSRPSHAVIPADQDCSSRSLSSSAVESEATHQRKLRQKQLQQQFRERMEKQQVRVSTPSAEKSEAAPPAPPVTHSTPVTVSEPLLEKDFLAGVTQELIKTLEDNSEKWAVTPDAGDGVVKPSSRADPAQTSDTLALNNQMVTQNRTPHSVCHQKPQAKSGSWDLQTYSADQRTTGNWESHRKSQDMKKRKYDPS

[14] = biological target: T5, Protein disulfide-isomerase (Homo sapiens, UniProt P07237); assay: PDI inhibitors, insulin aggregation turbidity, dose response, biochemical, absorbance, cherry-picked samples (AID 602350); type: functional
[15] = biological target: T5, Protein disulfide-isomerase; assay: PDI inhibitors, insulin turbidity readout, dose response, biochemical, absorbance, cherry-picked samples, set 2 (AID 624274); type: functional
[16] = biological target: ADP-ribosylation factor GTPase-activating protein 1 (Rattus norvegicus, UniProt Q62848); assay: Fluorescence polarization-based biochemical high throughput dose response screening assay to identify inhibitors of ADP-ribosylation factor GTPase activating protein 1 (ARFGAP1).; type: functional
[17] = biological target: Arf-GAP with SH3 domain, ANK repeat and PH domain-containing protein 1 (Homo sapiens, UniProt Q9ULH1); type: functional;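 also: biochemical fluorescence polarization dose–response screen measuring inhibition of ASAP1; ASAP1 GAP domain stimulating GTP hydrolysis by truncated human ARF1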
Mu-type opioid receptor = Mu-type opioid receptor (Homo sapiens, UniProt P35372); type: functional, cell-based;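 also: U2OS cells with beta-arrestin recruitment to OPRM1 by beta-gal complementation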
[18] = biological target: 5-hydroxytryptamine receptor 2A (Mus musculus, UniProt P35363); type: functional, cell-based;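 also: CHO-K1 cells with tagged receptor and beta-arrestin; agonist potency measured as compound-induced activation of the receptor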
Ephrin type-A receptor 4 = Ephrin type-A receptor 4 (Mus musculus, UniProt Q03137); assay: inhibitors of EphA4 binding to KYL peptide, primary screen, biochemical, colorimetric, mouse EphA4 (AID 689); type: functional
[19] = biological target: Induced myeloid leukemia cell differentiation protein Mcl-1 (Homo sapiens, UniProt Q07820); type: functional
[20] = biological target: Eukaryotic translation initiation factor 4E (Mus musculus, UniProt P63073); assay: eIF4E–eIF4G protein interaction inhibitors, dose response, biochemical, TR-FRET (AID 855); type: functional;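 also: potency for disrupting eIF4E binding to eIF4GI seen as loss of FRET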
[21] = biological target: DNA (cytosine-5)-methyltransferase 1 (Homo sapiens, UniProt P26358); assay: DNMT1 methyltransferase inhibitors, confirmation, biochemical, fluorescent molecular beacon (AID 602386); type: functional
[22] = biological target: T6, Rac GTPase-activating protein 1 (Homo sapiens, UniProt Q9H0H5); assay: MgcRacGAP GTPase-activating activity inhibitors, confirmation, biochemical, ADP Hunter fluorescence, primary and confirmatory (AID 624330); type: functional
T6 sequence (Q9H0H5 whole entry): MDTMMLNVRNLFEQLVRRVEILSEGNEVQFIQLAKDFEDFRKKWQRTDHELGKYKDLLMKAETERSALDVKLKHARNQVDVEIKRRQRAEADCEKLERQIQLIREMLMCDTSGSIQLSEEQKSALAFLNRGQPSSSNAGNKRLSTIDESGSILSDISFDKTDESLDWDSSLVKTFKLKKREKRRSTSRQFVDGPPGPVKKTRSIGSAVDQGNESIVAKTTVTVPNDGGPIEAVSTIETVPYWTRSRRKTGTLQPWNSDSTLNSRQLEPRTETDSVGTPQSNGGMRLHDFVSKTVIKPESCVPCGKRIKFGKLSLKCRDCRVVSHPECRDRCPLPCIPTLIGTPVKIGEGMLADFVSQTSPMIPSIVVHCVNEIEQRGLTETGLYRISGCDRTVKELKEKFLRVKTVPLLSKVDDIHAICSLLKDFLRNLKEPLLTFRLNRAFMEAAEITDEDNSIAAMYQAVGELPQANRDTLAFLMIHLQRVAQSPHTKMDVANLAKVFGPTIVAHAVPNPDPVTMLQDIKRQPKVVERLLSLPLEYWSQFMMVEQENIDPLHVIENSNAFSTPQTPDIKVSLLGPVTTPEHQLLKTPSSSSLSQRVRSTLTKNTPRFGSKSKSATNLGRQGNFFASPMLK

[23] = biological target: T7, Calpain-2 catalytic subunit (Sus scrofa, UniProt P43367); assay: pig calpain II inhibitor potency, dose response, biochemical, fluorogenic peptide substrate (AID 1420); type: functional
T7 sequence (P43367 whole entry): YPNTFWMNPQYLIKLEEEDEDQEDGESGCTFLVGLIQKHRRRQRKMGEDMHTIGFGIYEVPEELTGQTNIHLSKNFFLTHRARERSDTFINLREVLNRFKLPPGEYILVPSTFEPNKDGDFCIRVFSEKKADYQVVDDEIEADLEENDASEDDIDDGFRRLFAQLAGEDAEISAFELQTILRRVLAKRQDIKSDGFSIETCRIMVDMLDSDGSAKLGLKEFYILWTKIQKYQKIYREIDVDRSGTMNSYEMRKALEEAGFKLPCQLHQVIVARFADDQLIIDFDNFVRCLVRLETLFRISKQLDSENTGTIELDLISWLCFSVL

[24] = biological target: Mitochondrial peptide methionine sulfoxide reductase (Bos taurus, UniProt P54149); type: functional;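 also: absorbance read-out, biochemical high-throughput dose-response screen for MsrA inhibitors, confirmatory; recombinant bovine MsrA coupled to E. coli TrxB with NADPH and selenocystamine; potency is for inhibitors of MsrA activity on DMSO substrate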
Mitochondrial peptide methionine sulfoxide reductase, sequence (P54149 whole entry): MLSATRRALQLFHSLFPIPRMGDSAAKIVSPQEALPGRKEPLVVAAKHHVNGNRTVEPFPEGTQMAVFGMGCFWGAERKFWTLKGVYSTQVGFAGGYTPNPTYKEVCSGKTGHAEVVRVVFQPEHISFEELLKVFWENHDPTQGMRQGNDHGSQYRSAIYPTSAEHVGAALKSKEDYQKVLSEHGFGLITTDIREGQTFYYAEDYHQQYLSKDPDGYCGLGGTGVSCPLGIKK

T5 sequence (P07237 whole entry): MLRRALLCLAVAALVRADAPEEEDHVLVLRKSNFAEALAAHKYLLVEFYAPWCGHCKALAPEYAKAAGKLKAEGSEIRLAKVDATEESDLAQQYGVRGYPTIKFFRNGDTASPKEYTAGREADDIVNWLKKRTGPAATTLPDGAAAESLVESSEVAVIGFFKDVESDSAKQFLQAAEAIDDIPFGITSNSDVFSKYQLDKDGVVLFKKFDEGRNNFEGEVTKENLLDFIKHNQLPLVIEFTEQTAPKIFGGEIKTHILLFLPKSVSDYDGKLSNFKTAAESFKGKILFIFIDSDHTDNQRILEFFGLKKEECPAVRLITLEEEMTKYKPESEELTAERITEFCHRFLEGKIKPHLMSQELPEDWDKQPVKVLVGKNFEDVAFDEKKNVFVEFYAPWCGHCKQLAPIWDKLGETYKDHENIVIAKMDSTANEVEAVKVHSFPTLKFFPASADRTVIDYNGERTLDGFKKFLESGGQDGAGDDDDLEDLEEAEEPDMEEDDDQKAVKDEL
Mu-type opioid receptor, sequence (P35372 whole entry): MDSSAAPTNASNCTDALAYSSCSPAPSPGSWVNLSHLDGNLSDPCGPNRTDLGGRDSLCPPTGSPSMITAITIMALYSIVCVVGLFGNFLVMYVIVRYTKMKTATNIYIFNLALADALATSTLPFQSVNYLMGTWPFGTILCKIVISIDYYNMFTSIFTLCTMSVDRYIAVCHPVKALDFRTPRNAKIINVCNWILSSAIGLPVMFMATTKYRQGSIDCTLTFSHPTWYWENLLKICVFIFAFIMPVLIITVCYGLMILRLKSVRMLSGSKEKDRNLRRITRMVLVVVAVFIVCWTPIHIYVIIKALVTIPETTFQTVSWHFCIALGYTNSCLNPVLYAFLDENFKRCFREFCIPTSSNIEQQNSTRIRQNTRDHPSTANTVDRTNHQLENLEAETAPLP
Arf-GAP with SH3 domain, ANK repeat and PH domain-containing protein 1, sequence (Q9ULH1 whole entry, the tested form may be a part): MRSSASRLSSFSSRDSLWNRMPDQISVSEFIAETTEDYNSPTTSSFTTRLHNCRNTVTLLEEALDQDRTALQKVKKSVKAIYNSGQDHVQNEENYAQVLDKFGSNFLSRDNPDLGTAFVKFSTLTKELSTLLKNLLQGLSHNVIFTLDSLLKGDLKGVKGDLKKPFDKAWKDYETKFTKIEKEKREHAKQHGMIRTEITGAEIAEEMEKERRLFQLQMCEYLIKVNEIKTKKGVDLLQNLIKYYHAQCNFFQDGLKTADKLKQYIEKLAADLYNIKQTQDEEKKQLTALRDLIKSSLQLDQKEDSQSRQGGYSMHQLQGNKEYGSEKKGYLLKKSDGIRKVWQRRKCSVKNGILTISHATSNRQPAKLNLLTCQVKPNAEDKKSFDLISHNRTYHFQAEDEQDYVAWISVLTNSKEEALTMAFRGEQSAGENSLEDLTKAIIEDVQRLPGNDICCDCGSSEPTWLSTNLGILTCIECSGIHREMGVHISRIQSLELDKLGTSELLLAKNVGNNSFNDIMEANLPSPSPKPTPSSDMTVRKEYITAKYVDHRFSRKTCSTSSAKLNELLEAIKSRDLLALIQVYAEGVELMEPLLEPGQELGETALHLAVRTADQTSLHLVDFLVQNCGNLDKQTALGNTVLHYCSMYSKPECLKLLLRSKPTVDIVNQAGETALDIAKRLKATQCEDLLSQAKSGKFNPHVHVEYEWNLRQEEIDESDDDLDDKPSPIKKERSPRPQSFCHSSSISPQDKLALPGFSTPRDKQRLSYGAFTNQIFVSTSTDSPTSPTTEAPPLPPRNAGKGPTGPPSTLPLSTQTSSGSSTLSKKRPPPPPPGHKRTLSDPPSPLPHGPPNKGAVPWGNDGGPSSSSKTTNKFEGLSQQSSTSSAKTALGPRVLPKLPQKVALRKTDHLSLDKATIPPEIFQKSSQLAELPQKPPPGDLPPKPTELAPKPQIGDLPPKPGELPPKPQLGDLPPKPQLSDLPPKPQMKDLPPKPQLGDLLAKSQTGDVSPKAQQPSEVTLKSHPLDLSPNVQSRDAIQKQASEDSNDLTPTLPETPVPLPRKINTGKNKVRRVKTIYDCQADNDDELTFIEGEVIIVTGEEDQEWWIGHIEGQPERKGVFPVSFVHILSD
ADP-ribosylation factor GTPase-activating protein 1, sequence (Q62848 whole entry, the tested form may be a part): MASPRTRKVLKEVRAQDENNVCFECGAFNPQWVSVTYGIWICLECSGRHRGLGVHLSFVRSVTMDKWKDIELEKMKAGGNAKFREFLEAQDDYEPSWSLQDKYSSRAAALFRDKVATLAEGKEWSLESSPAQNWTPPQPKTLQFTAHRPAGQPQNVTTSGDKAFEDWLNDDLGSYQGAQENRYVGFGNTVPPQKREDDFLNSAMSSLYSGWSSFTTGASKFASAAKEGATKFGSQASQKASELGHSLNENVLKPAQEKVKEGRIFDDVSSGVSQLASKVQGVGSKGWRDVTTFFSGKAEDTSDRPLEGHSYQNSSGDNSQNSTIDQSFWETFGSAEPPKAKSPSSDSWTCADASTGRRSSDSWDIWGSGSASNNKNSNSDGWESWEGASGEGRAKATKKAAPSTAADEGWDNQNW
Ephrin type-A receptor 4, sequence (Q03137 whole entry): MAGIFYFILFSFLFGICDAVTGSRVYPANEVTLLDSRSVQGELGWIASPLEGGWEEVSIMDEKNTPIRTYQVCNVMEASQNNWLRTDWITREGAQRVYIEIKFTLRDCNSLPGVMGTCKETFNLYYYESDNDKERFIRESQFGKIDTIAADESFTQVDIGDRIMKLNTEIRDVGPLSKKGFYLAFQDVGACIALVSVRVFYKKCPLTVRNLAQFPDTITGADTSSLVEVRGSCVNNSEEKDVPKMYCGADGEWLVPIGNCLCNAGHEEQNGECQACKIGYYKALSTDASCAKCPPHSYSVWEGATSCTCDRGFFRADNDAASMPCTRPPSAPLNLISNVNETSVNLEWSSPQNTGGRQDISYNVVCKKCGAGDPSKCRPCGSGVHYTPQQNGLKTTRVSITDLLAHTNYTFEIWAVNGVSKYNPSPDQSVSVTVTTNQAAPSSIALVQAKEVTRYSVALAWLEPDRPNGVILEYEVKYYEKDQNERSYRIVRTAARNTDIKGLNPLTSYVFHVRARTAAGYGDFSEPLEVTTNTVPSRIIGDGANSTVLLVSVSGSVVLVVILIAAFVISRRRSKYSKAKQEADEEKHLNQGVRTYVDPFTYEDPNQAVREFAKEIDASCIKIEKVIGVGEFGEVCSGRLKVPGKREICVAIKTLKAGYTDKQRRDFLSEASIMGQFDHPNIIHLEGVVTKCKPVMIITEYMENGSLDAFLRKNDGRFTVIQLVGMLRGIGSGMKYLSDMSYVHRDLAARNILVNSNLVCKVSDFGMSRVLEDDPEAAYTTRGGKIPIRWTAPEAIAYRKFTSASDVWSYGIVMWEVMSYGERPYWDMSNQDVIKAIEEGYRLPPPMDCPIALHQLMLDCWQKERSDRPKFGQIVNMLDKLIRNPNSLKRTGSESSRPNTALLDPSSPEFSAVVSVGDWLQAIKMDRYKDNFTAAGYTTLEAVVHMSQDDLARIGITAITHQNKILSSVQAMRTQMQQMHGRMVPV
DNA repair and recombination protein RAD54-like, sequence (Q92698 whole entry): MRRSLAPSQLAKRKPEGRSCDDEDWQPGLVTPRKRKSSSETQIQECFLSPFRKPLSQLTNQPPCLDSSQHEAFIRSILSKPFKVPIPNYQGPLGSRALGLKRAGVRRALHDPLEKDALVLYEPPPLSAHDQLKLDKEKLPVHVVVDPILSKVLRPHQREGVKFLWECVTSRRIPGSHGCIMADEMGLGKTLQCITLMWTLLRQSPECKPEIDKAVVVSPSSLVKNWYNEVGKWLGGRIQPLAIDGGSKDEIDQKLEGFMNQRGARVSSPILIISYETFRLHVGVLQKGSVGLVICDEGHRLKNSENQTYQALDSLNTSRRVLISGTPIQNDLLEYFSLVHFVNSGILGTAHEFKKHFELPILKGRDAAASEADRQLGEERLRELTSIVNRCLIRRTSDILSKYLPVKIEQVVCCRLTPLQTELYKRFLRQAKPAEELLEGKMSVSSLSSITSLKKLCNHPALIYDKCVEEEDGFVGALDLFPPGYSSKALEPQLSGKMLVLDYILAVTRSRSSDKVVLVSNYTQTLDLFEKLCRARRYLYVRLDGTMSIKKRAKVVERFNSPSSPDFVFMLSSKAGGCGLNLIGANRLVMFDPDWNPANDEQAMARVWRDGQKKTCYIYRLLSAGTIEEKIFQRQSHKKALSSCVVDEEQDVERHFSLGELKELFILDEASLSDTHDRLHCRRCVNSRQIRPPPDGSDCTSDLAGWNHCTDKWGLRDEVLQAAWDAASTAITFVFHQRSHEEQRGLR
5-hydroxytryptamine receptor 2A, sequence (P35363 whole entry): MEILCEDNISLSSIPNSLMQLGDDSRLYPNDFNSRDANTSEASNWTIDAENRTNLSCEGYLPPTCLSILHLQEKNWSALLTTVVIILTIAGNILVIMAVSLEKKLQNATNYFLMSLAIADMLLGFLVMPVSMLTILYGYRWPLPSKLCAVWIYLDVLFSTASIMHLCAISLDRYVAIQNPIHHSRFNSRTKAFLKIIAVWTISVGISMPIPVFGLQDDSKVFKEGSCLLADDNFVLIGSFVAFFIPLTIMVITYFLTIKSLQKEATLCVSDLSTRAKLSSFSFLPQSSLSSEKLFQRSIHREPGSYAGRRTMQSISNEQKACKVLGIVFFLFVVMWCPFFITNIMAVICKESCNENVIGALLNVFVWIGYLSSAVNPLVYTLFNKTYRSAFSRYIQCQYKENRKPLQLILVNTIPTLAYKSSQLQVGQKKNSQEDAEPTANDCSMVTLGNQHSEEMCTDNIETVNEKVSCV

CCCN(CC)c1[nH]cnc2nncc1-2
AC50 (HEK293): 9.96 µM (active)
IC50 (Interleukin-8 [1]): 42.3 µM (inactive)
IC50 (Interleukin-8 [2]): 9.12 µM (active)
AC50 [3]: 3.26 µM (active)

Cc1cc(C(C)(C)C)cc(S(=O)(=O)NCCc2ccncc2)c1C
AC50 [4]: 0.598 µM (active)

CCOc1cc2c3c(c1)C1(C(=O)N3C(C)(C)CC2C)C(C#N)=C(N)N2C(=C1C#N)Nc1ccccc12 (configuration not stated)
CC50 [5]: > 40 µM (active)
AC50 [6]: 10 µM (active)
AC50 [7]: 2.23 µM (active)

Cc1ccc(S(=O)(=O)/N=C2\C=C(NS(=O)(=O)c3ccccc3)C(=O)c3ccccc32)c(C)c1
IC50 [8]: 14 µM (active)

COCCOC(=O)c1c(N)n(Cc2ccco2)c2nc3ccccc3nc12
AC50 [9]: 130 µM (active)

Cc1ccc(N2C(=O)[C@@H]3C(c4ccc(F)cc4)=NO[C@@H]3C2=O)cc1
EC50 [10]: > 100 µM (inactive)

CCOC(=O)c1cnc2c(ccc3ccccc32)c1NCCN(C)C
AC50 [11]: 55.9 µM (active)
AC50 [12]: 9.73 µM (active)
AC50 [13]: 6.71 µM (active)

O=C(Nc1ccccc1N1CCCC1)c1cc(Cl)ccc1Cl
AC50 [14]: < 0.009 µM (active)
AC50 [15]: 0.009 µM (active)

COc1cc(/C=N\NC(=O)c2ccc(C)nc2)ccc1OC(=O)c1ccc2c(c1)OCO2
IC50 [16]: 21 µM (inactive)
IC50 [17]: 24.8 µM (inactive)

CCC(=O)c1ccc(OCC(O)CN2CCN(c3ccccn3)CC2)cc1 (configuration not stated)
EC50 (Mu-type opioid receptor): 92.5 µM (inactive)
EC50 [18]: 0.306 µM (active)

C=CCOC(=O)c1cc(-c2ccc(/C=C3\C(=O)NC(=O)C(C#N)=C3C)o2)ccc1Cl
IC50 (Ephrin type-A receptor 4): 1.45 µM (active)
IC50 [19]: 1.2 µM (active)
IC50 [20]: 12.8 µM (active)
IC50 [21]: 5 µM (active)
IC50 [22]: 229 µM (active)

CCOC(=O)C/C(C)=N\Nc1ccc([N+](=O)[O-])cc1[N+](=O)[O-]
IC50 [23]: 23 µM (not active)
IC50 [24]: 155 µM (inactive)
